Reference: the supplement of paper PMC10307832

Tests used:
Assay in all cases: relative viability (nuclei count vs DMSO), 5 days (fraction); higher = more cells survive
Lapatinib + Trametinib = compound: CS(=O)(=O)CCNCc1ccc(-c2ccc3ncnc(Nc4ccc(OCc5cccc(F)c5)c(Cl)c4)c3c2)o1 [Lapatinib] + CC(=O)Nc1cccc(-n2c(=O)n(C3CC3)c(=O)c3c(Nc4ccc(I)cc4F)n(C)c(=O)c(C)c32)c1 [Trametinib] (partner 0.02 µM)
Procedure, shortened: (§1)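 Relative viability equals treated-well nuclei counts divided by vehicle-well nuclei counts. Counts came from 4× images of lung cancer cell lines grown in 1536-well plates for 5 days after pin-tool dosing on the day after seeding. Dosing used one drug alone or a fixed anchor-drug dose plus five library-drug doses (not always all listed) in √10 steps, and values are medians of duplicate plates.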

Lapatinib + AZD7762 = compound: CS(=O)(=O)CCNCc1ccc(-c2ccc3ncnc(Nc4ccc(OCc5cccc(F)c5)c(Cl)c4)c3c2)o1 [Lapatinib] + NC(=O)Nc1cc(-c2cccc(F)c2)sc1C(=O)N[C@H]1CCCNC1 [AZD7762] (partner 0.2 µM)
Procedure, shortened: as §1

Wnt-C59 + Crizotinib = compound: CC1=NC=CC(=C1)C2=CC=C(C=C2)CC(=O)NC3=CC=C(C=C3)C4=CN=CC=C4 [Wnt-C59] + C[C@@H](Oc1cc(-c2cnn(C3CCNCC3)c2)cnc1N)c1c(Cl)ccc(F)c1Cl [Crizotinib] (partner 1 µM)
Procedure, shortened: as §1

Wnt-C59 + Navitoclax = compound: CC1=NC=CC(=C1)C2=CC=C(C=C2)CC(=O)NC3=CC=C(C=C3)C4=CN=CC=C4 [Wnt-C59] + CC1(C)CCC(c2ccc(Cl)cc2)=C(CN2CCN(c3ccc(C(=O)NS(=O)(=O)c4ccc(N[C@H](CCN5CCOCC5)CSc5ccccc5)c(S(=O)(=O)C(F)(F)F)c4)cc3)CC2)C1 [Navitoclax] (partner 0.5 µM)
Procedure, shortened: as §1

Cell Line	relative viability (Lapatinib + Trametinib; first compound 0.06325 µM)	relative viability (Lapatinib + Trametinib; first compound 0.2 µM)	relative viability (Lapatinib + Trametinib; first compound 0.6325 µM)	relative viability (Lapatinib + Trametinib; first compound 2 µM)	relative viability (Lapatinib + AZD7762; first compound 0.06325 µM)	relative viability (Lapatinib + AZD7762; first compound 0.2 µM)	relative viability (Lapatinib + AZD7762; first compound 0.6325 µM)	relative viability (Lapatinib + AZD7762; first compound 2 µM)	relative viability (Wnt-C59 + Crizotinib; first compound 0.001 µM)	relative viability (Wnt-C59 + Crizotinib; first compound 0.01 µM)	relative viability (Wnt-C59 + Crizotinib; first compound 0.03162 µM)	relative viability (Wnt-C59 + Crizotinib; first compound 0.1 µM)	relative viability (Wnt-C59 + Navitoclax; first compound 0.001 µM)	relative viability (Wnt-C59 + Navitoclax; first compound 0.01 µM)	relative viability (Wnt-C59 + Navitoclax; first compound 0.03162 µM)	relative viability (Wnt-C59 + Navitoclax; first compound 0.1 µM)	relative viability (Lapatinib + Trametinib; first compound 0.02 µM)	relative viability (Lapatinib + AZD7762; first compound 0.02 µM)
NCI-H1915	0.29	0.3	0.292	0.304	0.71	0.685	0.705	0.592	0.771	0.852	1.02	0.912	0.822	0.8	0.77	0.8		
Calu-6									0.787	0.779	0.883	0.825	0.801	0.97	0.757	0.787		
LU99A	0.453	0.448	0.511	0.536	0.217	0.363	0.388	0.329	0.577	0.538	0.622	0.531	0.779	0.933	0.822	0.772	0.532	0.329
LOU-NH91	0.684	0.726	0.709	0.665	0.58	0.696	0.703	0.599	0.732	0.65	0.738	0.766	0.823	0.573	0.638	0.713	0.787	0.76
NCI-H1993		0.57	0.496	0.477		0.86	0.499	0.455	0.932	0.981	0.878	1.9	1.04	0.82	1.09	0.972	0.458	0.615
NCI-H1703					0.119		0.121	0.113	0.988	0.735	0.585	0.64	1.45	1.39	1.08	1.08		
NCI-H2405	0.409		0.52	0.438	0.682		0.759	0.617	0.833	0.806	0.812	0.779	0.946		0.702	0.867		
NCI-H661	0.536	0.549	0.432	0.388					1	1.05	0.981	0.948					0.509	
COR-L 105	0.419	0.402	0.363	0.393					0.879	0.808	0.853	0.76	0.905	0.733	0.878	1.02	0.433	
NCI-H1437	0.492	0.498	0.458	0.303	1.11	1.1	1.07	1.06	0.996	0.867	0.988	0.89	1.16	1.03	1.16	1.09	0.475	1.13
NCI-H1563									0.812	0.802	0.965	0.797						
NCI-H2009	0.236	0.295	0.294	0.268					0.941	1.11	1.06	1.03	1.13	1.23	1.14	1.14	0.266	
NCI-H23		0.368	0.467	0.398		0.216	0.232	0.154	0.521	0.463	0.537	0.599	0.723	0.775	1.04	0.805		
201T	0.719	0.694	0.726	0.651	0.585	0.601	0.591	0.608	1.01	1.02	1.01	1.03	1.21	1.2	1.19	1.2	0.735	0.513
NCI-H520	0.62	0.642	0.845	0.557					0.915	0.83	0.831	0.716	1.11	1.13	1.11	1.05	0.692	
A-427	0.631	0.716	0.788	0.691	0.658	0.745	0.793	0.681	0.982	0.798	0.962	0.905	0.925	0.9	0.943	1	0.724	0.709
NCI-H1975	0.282	0.328	0.384	0.254	0.592	0.617	0.538	0.5	0.98	0.936	1.04	0.948	1.25	1.11	1.06	1.2	0.264	0.821
NCI-H647	0.42	0.45	0.641	0.224	0.573	0.43	0.583	0.401	1.12	1.15	1.2	0.909	1.16	0.972	1.12	0.967	0.394	
NCI-H3122	0.203	0.207	0.218	0.248	0.9	0.999	1.04	0.973	0.28	0.268	0.283	0.249	1.02	0.976	0.958	0.98	0.256	0.959
A549									0.802	0.676	0.752	0.676	1.23	1.31	1.29	1.12		
NCI-H1299									1.02	0.562	0.952	0.953	1.03	1.06	1.02	1.02		
HCC-44	1.05	1.16	1.04	0.807	1.03	1.02	1.01	0.893	0.878	0.78	0.753	0.757	1.01	0.904	1.02	0.954	1.03	0.984
NCI-H838	0.436	0.575	0.517	0.483	0.832	0.904	0.939	0.843	0.839	0.826	0.902	0.916	1.24	1.18	1.18	1.16	0.609	0.927

Cell Line	relative viability (Lapatinib + Trametinib; first compound 0.06325 µM)	relative viability (Lapatinib + Trametinib; first compound 0.2 µM)	relative viability (Lapatinib + Trametinib; first compound 0.6325 µM)	relative viability (Lapatinib + Trametinib; first compound 2 µM)	relative viability (Lapatinib + AZD7762; first compound 0.06325 µM)	relative viability (Lapatinib + AZD7762; first compound 0.2 µM)	relative viability (Lapatinib + AZD7762; first compound 0.6325 µM)	relative viability (Lapatinib + AZD7762; first compound 2 µM)	relative viability (Wnt-C59 + Crizotinib; first compound 0.001 µM)	relative viability (Wnt-C59 + Crizotinib; first compound 0.01 µM)	relative viability (Wnt-C59 + Crizotinib; first compound 0.03162 µM)	relative viability (Wnt-C59 + Crizotinib; first compound 0.1 µM)	relative viability (Wnt-C59 + Navitoclax; first compound 0.001 µM)	relative viability (Wnt-C59 + Navitoclax; first compound 0.01 µM)	relative viability (Wnt-C59 + Navitoclax; first compound 0.03162 µM)	relative viability (Wnt-C59 + Navitoclax; first compound 0.1 µM)	relative viability (Lapatinib + Trametinib; first compound 0.02 µM)	relative viability (Lapatinib + AZD7762; first compound 0.02 µM)
NCI-H2342	0.722	0.65	0.676	0.629	0.408	0.381	0.447	0.394									0.706	0.421
NCI-H460	0.0952	0.282	0.171	0.0626	0.62	0.679	0.537	0.387	0.996	0.961	0.878	0.689	0.968	1.18	1.11	1.04	0.0377	
CAL-12T	0.257	0.313	0.29	0.203	0.615	0.515	0.587	0.592	0.699	0.654	0.89	0.555	1.35	1.45	1.19	1.1	0.308	
NCI-H1650	0.516	0.514	0.46	0.444					1.08	1.02	0.896	0.89	1.35	1.41	1.27	1.1	0.568	
NCI-H650	0.78	0.965	0.955	0.927	0.735	1.03	1.04	0.977	0.699	0.75	0.874	0.691						
NCI-H2085	0.56	0.511	0.559	0.452	0.886	0.929	0.797	0.526	0.929	0.803	0.953	0.823	1.28	1.15	1.23	1.05	0.404	0.881
NCI-H2126	0.417	0.467	0.533	0.402	0.927	0.983	0.975	0.928	0.994	0.998	0.987	1.01	0.865	0.87	0.866	0.872	0.536	0.55
NCI-H522	0.636	0.688	0.809	0.655	0.731	0.845	1.07	0.612										
SW 900	0.829	0.785	0.771	0.689	0.549	0.549	0.591	0.466										
SK-LU-1	0.43	0.439	0.557	0.507					0.869	0.935	0.91	1.03	0.893	0.832	1.02	0.893	0.377	
IA-LM									0.919	0.746	0.632	0.705	0.851	0.751	0.718	0.751		
NCI-H2228	0.441	0.609	0.583	0.27					0.509	0.393	0.563	0.466	0.957	0.87	0.68	1.05	0.112	
NCI-H1648	0.307	0.256	0.339	0.233	0.921	0.612	0.643	0.658										
NCI-H358	0.108	0.122	0.123	0.121	0.364	0.379	0.388	0.282	0.608	0.525	0.436	0.625					0.135	0.459
SK-MES-1	0.446	0.425	0.339	0.275					1.01	0.973	1.07	0.959	1.2	1.17	1.3	1.16	0.512	
NCI-H1793	0.416	0.469	0.406	0.394	0.355	0.304	0.437	0.186					0.397	0.398	0.378	0.95		
COR-L23	0.555	0.68	0.651	0.551					0.653	0.567	0.637	0.67	1.13	1.02	1.17	0.944	0.408	
NCI-H2023	0.397	0.429	0.433	0.328					0.701	0.65	0.686	0.594	1	0.993	1.03	0.944		
ABC-1					0.73	0.821	0.774	1.07	1.03	1.21	1.11	0.868						
NCI-H1395	0.956	1.07	1.06	1.03	0.364	0.428	0.383	0.414					1.24	1.1	1.08	1.32		
LCLC-103H	0.641	0.664	0.668	0.631	0.575	0.791	0.836	0.727	1.08	0.977	1	1.02					0.659	0.61
EBC-1									0.191	0.188	0.204	0.224	0.378	0.405	0.431	0.513		
SW 1573	0.577	0.527	0.606	0.515					0.771	0.764	0.746	0.825	1.03	1.04	1.09	0.989		
